# Earlier results in patent US20240423930A1, “PHARMACEUTICAL COMPOSITION AND METHOD FOR TREATING CARDIOVASCULAR DISEASES” (priority 2020, published 2024).
# Test system: furin
# Settings: ectopic expression of the inhibitor; in vitro digestion assay
substance,measurement,value
alpha (1)-antitrypsin Portland [alpha(1)-AT-PDX],blocked TGF-beta1 processing mediated by endogenous enzymes,80%
